What was measured:
[1] = system: synaptosomes from the striatal area of rat brain; test: [3H]-dopamine release from rat striatal synaptosomes; assay type: biochemical, Sprague-Dawley rats; conditions: 0.2 ml of a 20 μM solution of ligand, relative to equal concentration of S(-) nicotine
Method: Dopamine release was measured by preparing synaptosomes from the striatal area of rat brain obtained from Sprague-Dawley rats generally according to the procedures set forth by Nagy, et al., J. Neurochem., Vol. 43, pp. 1114-1123 (1984). Striata from 4 rats were homogenized in 2 ml of 0.32M sucrose buffered with 5 mM HEPES (pH 7.5), using a glass-teflon tissue grinder. The homogenate was diluted to 5 ml with additional homogenization solution and centrifuged at 1000×g for 10 min. This procedure was repeated on the new pellet and the resulting supernatant was centrifuged at 12,000×g for 20 min. […] Using this method, 30 to 90 percent of the dopamine was taken up into the synaptosomes, as determined by scintillation counting following filtration through glass fiber filters soaked with 0.5 percent polyethyleneimine. […] After the addition of a 0.2 ml of a 20 μM solution of ligand, the perfusate was collected into scintillation vials at 1 min. intervals and the dopamine released was quantified by scintillation counting. Peaks of radioactivity released above background were summed and the average basal release during that time was subtracted from the total. Release was expressed as a percentage of release obtained with an equal concentration of S(-) nicotine.

[2] = target: high affinity nicotinic receptors; test: Inhibition of L-[3H]nicotine binding to mouse brain membrane preparations; design: species or system Mice (DBA strain); conditions: mouse brain membranes, 2 hr incubation at 4° C., 10 nM L-[3H]nicotine, Ki calculated from IC50 by method of Cheng et al.
Method: Mice (DBA strain) were maintained on a 12 hour light/dark cycle and were allowed free access to water and food supplied by Wayne Lab Blox, Madison, Wis. Animals used in the present studies were 60 to 90 days of age and weighed 20 to 25 g. Brain membrane preparations were obtained from pooled brain tissue of both males and females.
Mice were killed by cervical dislocation. Brains were removed and placed on an ice-cold platform. […] Protein was determined by the method of Lowry, et al., J. Biol. Chem., Vol. 193, pp. 265-275 (1951), using bovine serum albumin as the standard.
The binding of L-[^3 H]nicotine was measured using a modification of the method of Romano, et al., Science, Vol. 210, pp. 647-650 (1980) as described previously by Marks, et al., Mol. Pharmacol., Vol. 30, pp. 427-436 (1986). The binding of L-[^3 H]nicotine was measured using a 2 hr. incubation at 4° C. […] Nonspecific binding was determined by inclusion of 10 μM nonradioactive nicotine in the incubations. The inhibition of L-[^3 H]nicotine binding by test compounds was determined by including one of eight different concentrations of the test compound in the incubation. […] Inhibition constants (Ki values) were calculated from the IC50 values using the method of Cheng, et al., Biochem. Pharmacol., Vol. 22, pp. 3099-3108 (1973). […]

For `CN1CCCC1c1ccncc1` (centres unmarked) [gamma-nicotine], the “Dopamine Release (Percent release relative to S(-) nicotine)” value [1] was 45% and the Ki [2] was 1.1 ± 0.1 µM.

Reference: patent US5242934A, “Method for treatment of neurodegenerative diseases” (R. J. Reynolds Tobacco Company, priority 1992, dated 1993)
